Assay type in all cases: cell-based
Holding throughout (details): LB broth, 5×10^5 CFU/ml, 37° C., 18 hours, scored by eye

Assay [1] deals with E. coli 25922. The assay is described as follows: Minimum Inhibitory Concentration (MIC) determination, E. coli 25922. The arrangement: unit not given here. As to the method:
(§1) MICs were determined by performing two-fold serial dilutions of peptides in LB broth to a final volume of 0.1 ml in round-bottom 96-well assay plates (Corning Life Sciences No 3788). Peptides were initially resuspended in 100% DMSO to 10 mM and subsequently diluted in LB medium to the appropriate concentration. Each well was inoculated with 5×10^5 CFU/ml of the screening stain and incubated at 37° C. without agitation for 18 hours. Plates were scored by eye, and the lowest compound concentration preventing visible growth was determined to be the MIC.

Assay [2] relates to E. coli 25922 IMP. The assay is described as follows: Minimum Inhibitory Concentration (MIC) determination, E. coli 25922 IMP. As to the method:
as §1

Assay [3] deals with E. coli BW25113. The assay is described as follows: Minimum Inhibitory Concentration (MIC) determination, E. coli BW25113. The arrangement: unit not given here. The procedure: as §1

14 molecules from US20240279283A1, “CYCLIC PEPTIDE ANTIBIOTICS” (priority 2021, published 2024) can be followed below.

Bridge positions count the residues as written; N and C are the ends. Square brackets hold non-standard residues; d marks the D form. Peptide text beside a SMILES is read from it. 1Nal = N[C@@H](Cc1cccc2ccccc12)C(=O)O; 2Nal = N[C@@H](Cc1ccc2ccccc2c1)C(=O)O; His(π-Me) = Cn1cncc1C[C@H](N)C(=O)O; NMeY = CN[C@@H](Cc1ccc(O)cc1)C(=O)O; NMeF = CN[C@@H](Cc1ccccc1)C(=O)O; Abu = CC[C@H](N)C(=O)O

As for `CC[C@@H]1NC(=O)[C@H](Cc2ccccc2)N(C)C(=O)CSC[C@@H](C(=O)NCC(N)=O)NC(=O)[C@H](Cc2cncn2C)NC(=O)[C@H](CN)NC(=O)[C@H](Cc2c[nH]cn2)NC(=O)[C@H](Cc2ccc(O)cc2)N(C)C(=O)[C@H](CCCNC(=N)N)NC(=O)[C@H](CO)NC(=O)CNC(=O)[C@H](Cc2c[nH]cn2)NC(=O)[C@H](Cc2cccc3ccccc23)NC1=O` (racemic) [Compound 48], in assay [1], the “MIC E. coli 25922 WUXI::MIC” value is >100.
On to `CC[C@@H]1NC(=O)[C@H](Cc2ccccc2)N(C)C(=O)CSC[C@@H](C(=O)NCC(N)=O)NC(=O)[C@H](Cc2cncn2C)NC(=O)[C@H](CCC(N)=O)NC(=O)[C@H](Cc2c[nH]cn2)NC(=O)[C@H](Cc2ccc(O)cc2)N(C)C(=O)[C@H](CCCNC(=N)N)NC(=O)[C@H](CO)NC(=O)CNC(=O)[C@H](Cc2c[nH]cn2)NC(=O)[C@H](Cc2cccc3ccccc23)NC1=O` (racemic) [Compound 45], for which, in assay [1], the “MIC E. coli 25922 WUXI::MIC” value is recorded as >100.
Take `CC[C@@H]1NC(=O)[C@H](Cc2ccccc2)N(C)C(=O)CSC[C@@H](C(=O)NCC(N)=O)NC(=O)[C@H](Cc2cncn2C)NC(=O)[C@H](CCN)NC(=O)[C@H](Cc2c[nH]cn2)NC(=O)[C@H](Cc2ccc(O)cc2)N(C)C(=O)[C@H](CCCNC(=N)N)NC(=O)[C@H](CO)NC(=O)CNC(=O)[C@H](Cc2c[nH]cn2)NC(=O)[C@H](Cc2cccc3ccccc23)NC1=O` (racemic) [Compound 49]: in assay [1], the “MIC E. coli 25922 WUXI::MIC” value worked out at 50.
`CC[C@@H]1NC(=O)[C@H](Cc2ccccc2)N(C)C(=O)CSC[C@@H](C(=O)NCC(N)=O)NC(=O)[C@H](Cc2cncn2C)NC(=O)[C@H](CCCNC(=N)N)NC(=O)[C@H](Cc2c[nH]cn2)NC(=O)[C@H](Cc2ccc(O)cc2)N(C)C(=O)[C@H](CCCNC(=N)N)NC(=O)[C@H](CO)NC(=O)CNC(=O)[C@H](Cc2c[nH]cn2)NC(=O)[C@H](Cc2cccc3ccccc23)NC1=O` [Compound 23] ({CH2CO}-[NMeF][Abu][1Nal]HGSR[NMeY]HR[His(π-Me)]CG-NH2; thioether N-12): in assay [1], the “MIC E. coli 25922 WUXI::MIC” value was determined as 25. Further, the “MIC E. coli 25922 IMP WUXI::MIC” value in assay [2] came to 0.016.
With `CCC1NC(=O)C(Cc2c[nH]cn2)NC(=O)C(Cc2ccc(O)cc2)N(C)C(=O)C(CCCNC(=N)N)NC(=O)C(CO)NC(=O)CNC(=O)C(Cc2c[nH]cn2)NC(=O)C(Cc2cccc3ccccc23)NC(=O)C(CC)NC(=O)C(Cc2ccccc2)N(C)C(=O)CSCC(C(=O)NCC(N)=O)NC(=O)C(Cc2cncn2C)NC1=O` (racemic) [Compound 44], the “MIC E. coli 25922 WUXI::MIC” value in assay [1] is listed as >100.
On to `CC[C@@H]1NC(=O)[C@H](Cc2ccccc2)NC(=O)CSC[C@@H](C(=O)NCC(N)=O)NC(=O)[C@H](Cc2cncn2C)NC(=O)[C@H](CCCNC(=N)N)NC(=O)[C@H](Cc2c[nH]cn2)NC(=O)[C@H](Cc2ccc(O)cc2)N(C)C(=O)[C@H](CCCNC(=N)N)NC(=O)[C@H](CO)NC(=O)CNC(=O)[C@H](Cc2c[nH]cn2)NC(=O)[C@H](Cc2ccc3ccccc3c2)NC1=O` [Compound 25] ({CH2CO}-F[Abu][2Nal]HGSR[NMeY]HR[His(π-Me)]CG-NH2; thioether N-12), for which the “MIC E. coli 25922 WUXI::MIC” value in assay [1] was 25. For the same molecule, the “MIC E. coli 25922 IMP WUXI::MIC” value in assay [2] turned out to be 0.031.
For the molecule `CC[C@@H]1NC(=O)[C@H](Cc2ccccc2)NC(=O)CSC[C@@H](C(=O)NCC(N)=O)NC(=O)[C@H](Cc2cncn2C)NC(=O)[C@H](CC)NC(=O)[C@H](Cc2c[nH]cn2)NC(=O)[C@H](Cc2ccc(O)cc2)N(C)C(=O)[C@H](CCCNC(=N)N)NC(=O)[C@H](CO)NC(=O)CNC(=O)[C@H](Cc2c[nH]cn2)NC(=O)[C@H](Cc2cccc3ccccc23)NC1=O` (stereo in doubt) [Compound 41], the “MIC E. coli 25922 WUXI::MIC” value in assay [1] is reported as >100.
`CC[C@@H]1NC(=O)[C@H](Cc2ccccc2)NC(=O)CSC[C@@H](C(=O)NCC(N)=O)NC(=O)[C@H](Cc2cncn2C)NC(=O)[C@H](CN)NC(=O)[C@H](Cc2c[nH]cn2)NC(=O)[C@H](Cc2ccc(O)cc2)N(C)C(=O)[C@H](CCCNC(=N)N)NC(=O)[C@H](CO)NC(=O)CNC(=O)[C@H](Cc2c[nH]cn2)NC(=O)[C@H](Cc2cccc3ccccc23)NC1=O` (racemic) [Compound 46]: the “MIC E. coli 25922 WUXI::MIC” value in assay [1] was determined as 100.
As for `CC[C@@H]1NC(=O)[C@H](Cc2ccccc2)NC(=O)CSC[C@@H](C(=O)NCC(N)=O)NC(=O)[C@H](Cc2cncn2C)NC(=O)[C@H](CCCNC(=N)N)NC(=O)[C@H](Cc2c[nH]cn2)NC(=O)[C@H](Cc2ccc(O)cc2)NC(=O)[C@H](CCCNC(=N)N)NC(=O)[C@H](CO)NC(=O)CNC(=O)[C@H](Cc2c[nH]cn2)NC(=O)[C@H](Cc2cccc3ccccc23)NC1=O` [Compound 32, (3R,6S,9S,12S,15S,18S,21S,27S,30S, 33S,36S)-N-(2-amino-2-oxo-ethyl)-36-benzyl-33-ethyl-9,18-bis(3-guanidinopropyl)-21-(hydroxymethyl)-15-[(4-hydroxyphenyl)methyl]-12,27-bis(1H-imidazol-4-ylmethyl)-6-[(3-methylimidazol-4-yl)methyl]-30-(1-naphthylmethyl)-5,8,11,14,17,20,23,26,29,32,35,38-dodecaoxo-1-thia-4,7,10,13,16,19,22,25,28,31,34,37-dodecazacyclononatriacontane-3-carboxamide] ({CH2CO}-F[Abu][1Nal]HGSRYHR[His(π-Me)]CG-NH2; thioether N-12), the “MIC E. coli 25922 WUXI::MIC” value in assay [1] is given as 25. Moreover, the “MIC E. coli 25922 IMP WUXI::MIC” value in assay [2] was 0.031.
The matching figures for `CC[C@@H]1NC(=O)[C@H](Cc2ccccc2)NC(=O)CSC[C@@H](C(=O)NCC(N)=O)NC(=O)[C@H](Cc2cncn2C)NC(=O)[C@H](CCCNC(=N)N)NC(=O)[C@H](Cc2c[nH]cn2)NC(=O)[C@H](Cc2ccc(O)cc2)N(C)C(=O)[C@H](C)NC(=O)[C@H](CO)NC(=O)CNC(=O)[C@H](Cc2c[nH]cn2)NC(=O)[C@H](Cc2cccc3ccccc23)NC1=O` [Compound 36] ({CH2CO}-F[Abu][1Nal]HGSA[NMeY]HR[His(π-Me)]CG-NH2; thioether N-12): 100 and 100.
On to `CC[C@@H]1NC(=O)[C@H](Cc2ccccc2)NC(=O)CSC[C@@H](C(=O)NCC(N)=O)NC(=O)[C@H](Cc2cncn2C)NC(=O)[C@H](CCCNC(=N)N)NC(=O)[C@H](Cc2cnc[nH]2)NC(=O)[C@H](Cc2ccccc2)N(C)C(=O)[C@H](CCCNC(=N)N)NC(=O)[C@H](CO)NC(=O)CNC(=O)[C@H](Cc2c[nH]cn2)NC(=O)[C@H](Cc2c[nH]c3ccccc23)NC1=O` [Compound 7, (3R,6S,9S,12S,15S,18S,21S,27S,30S, 33S,36S)-N-(2-amino-2-oxo-ethyl)-15,36-dibenzyl-33-ethyl-9,18-bis(3-guanidinopropyl)-21-(hydroxymethyl)-12,27-bis(1H-imidazol-4-ylmethyl)-30-(1H-indol-3-ylmethyl)-16-methyl-6-[(3-methylimidazol-4-yl)methyl]-5,8,11,14,17,20,23,26,29,32,35,38-dodecaoxo-1-thia-4,7,10,13,16,19,22,25,28,31,34,37-dodecazacyclononatriacontane-3-carboxamide] ({CH2CO}-F[Abu]WHGSR[NMeF]HR[His(π-Me)]CG-NH2; thioether N-12), for which, in assay [3], the “MIC E. coli BW25113 WUXI::MIC” value was determined as 2. In addition, the “MIC E. coli 25922 IMP WUXI::MIC” value in assay [2] turned out to be 0.0005.
Turning to `CC[C@@H]1NC(=O)[C@H](Cc2ccccc2)NC(=O)CSC[C@@H](C(=O)NCC(N)=O)NC(=O)[C@H](Cc2cncn2C)NC(=O)[C@H](CCCNC(=N)N)NC(=O)[C@H](Cc2cnc[nH]2)NC(=O)[C@H](Cc2ccccc2)N(C)C(=O)[C@H](CCCNC(=N)N)NC(=O)[C@H](CO)NC(=O)CNC(=O)[C@H](Cc2cnc[nH]2)NC(=O)[C@H](Cc2cccc3ccccc23)NC1=O` (racemic) [Compound 10, rac-(3R,6S,9S,12S,15S,18S,21S,27S,30S,3 3S,36S)-N-(2-amino-2-oxo-ethyl)-15,36-dibenzyl-33-ethyl-9,18-bis(3-guanidinopropyl)-21-(hydroxymethyl)-12,27-bis(1H-imidazol-5-ylmethyl)-16-methyl-6-[(3-methylimidazol-4-yl)methyl]-30-(1-naphthylmethyl)-5,8,11,14,17,20,23,26,29,32,35,38-dodecaoxo-1-thia-4,7,10,13,16,19,22,25,28,31,34,37-dodecazacyclononatriacontane-3-carboxamide], the “MIC E. coli BW25113 WUXI::MIC” value in assay [3] is recorded as 8. Also, the “MIC E. coli 25922 IMP WUXI::MIC” value in assay [2] stood at 2.3842E−07.
Turning to `CC[C@@H]1NC(=O)[C@H](Cc2ccccc2)NC(=O)CSC[C@@H](C(=O)NCC(N)=O)NC(=O)[C@H](Cc2cncn2C)NC(=O)[C@H](CCC(N)=O)NC(=O)[C@H](Cc2c[nH]cn2)NC(=O)[C@H](Cc2ccc(O)cc2)N(C)C(=O)[C@H](CCCNC(=N)N)NC(=O)[C@H](CO)NC(=O)CNC(=O)[C@H](Cc2c[nH]cn2)NC(=O)[C@H](Cc2cccc3ccccc23)NC1=O` (racemic) [Compound 42], the “MIC E. coli 25922 WUXI::MIC” value in assay [1] is recorded as 100.
As to `CC(C)[C@@H]1NC(=O)[C@H](Cc2ccccc2)NC(=O)CSC[C@@H](C(=O)NCC(N)=O)NC(=O)[C@H](Cc2cncn2C)NC(=O)[C@H](CCCNC(=N)N)NC(=O)[C@H](Cc2cnc[nH]2)NC(=O)[C@H](Cc2ccccc2)N(C)C(=O)[C@H](CCCNC(=N)N)NC(=O)[C@H](CO)NC(=O)CNC(=O)[C@H](Cc2cnc[nH]2)NC(=O)[C@H](Cc2c[nH]c3ccccc23)NC1=O` (racemic) [Compound 9, rac-(3R,6S,9S,12S,15S,18S,21S,27S,30S, 33S,36S)-N-(2-amino-2-oxo-ethyl)-15,36-dibenzyl-9,18-bis(3-guanidinopropyl)-21-(hydroxymethyl)-12,27-bis(1H-imidazol-5-ylmethyl)-30-(1H-indol-3-ylmethyl)-33-isopropyl-16-methyl-6-[(3-methylimidazol-4-yl)methyl]-5,8,11,14,17,20,23,26,29,32,35,38-dodecaoxo-1-thia-4,7,10,13,16,19,22,25,28,31,34,37-dodecazacyclononatriacontane-3-carboxamide], the “MIC E. coli BW25113 WUXI::MIC” value in assay [3] is given as 8. The “MIC E. coli 25922 IMP WUXI::MIC” value in assay [2] came out at 9.5367E−07.
